Laboratory results as given in article PMC10487436, “Towards Anticancer and Antibacterial Agents: Design and Synthesis of 1,2,3-Triazol-quinobenzothiazine Derivatives” (International Journal of Molecular Sciences, 2023).
Converted amounts (≈) assume the structure as drawn.

Assays:
[1] = tested on: methicillin-resistant S. aureus SA 630; test: MIC, microtitration broth method, MRSA2; format: cell-based; conditions: Staphylococcus aureus; 24 h at 37 °C
Description: (§1) In vitro antibacterial activity of the synthesized compounds was evaluated against representatives of multidrug-resistant bacteria, three clinical isolates of methicillin-resistant S. aureus: clinical isolates of animal origin, MRSA 63718 (Department of Infectious Diseases and Microbiology, Faculty of Veterinary Medicine, University of Veterinary Sciences Brno, Czech Republic), carrying the mecA gene; and MRSA SA 630 and MRSA SA 3202 [52] (National Institute of Public Health, Prague, Czech Republic), both of human origin. […] Vancomycin- and methicillin-susceptible S. aureus ATCC 29213 and vancomycin-susceptible Enterococcus faecalis ATCC 29212, obtained from the American Type Culture Collection, were used as the reference and quality control strains. Three vanA gene-carrying vancomycin-resistant isolates of E. faecalis (VRE 342B, VRE 368, VRE 725B) were provided by Oravcova et al..
(§2) The minimum inhibitory concentrations (MICs) were evaluated by the microtitration broth method according to the CLSI, with some modifications. The compounds were dissolved in DMSO (Sigma, St. Louis, MO, USA) to obtain a concentration of […] and diluted in a microtitration plate in an appropriate medium, i.e., Cation Adjusted Mueller–Hinton Broth (CaMH, Oxoid, Basingstoke, UK) for staphylococci, and Brain Heart Infusion Broth (BHI, Oxoid) for enterococci, to reach the final concentration of 256–0.125 µg/mL. Microtiter plates were inoculated with test micro-organisms so that the final concentration of bacterial cells was 10^5. […] A drug-free control and a sterility control were included. The plates were incubated for 24 h at 37 °C for staphylococci and enterococci. […] The experiments were repeated three times.

[2] = tested on: Staphylococcus aureus ATCC 29213; test: MIC, microtitration broth method, SA; format: cell-based; conditions: ATCC29213, 24 h at 37 °C
Description: as §1, §2

[3] = tested on: A549 (human lung carcinoma); test: WST-1 proliferation assay, A549; format: cell-based
Description: (§3) Compounds were evaluated for their antiproliferative activity using three cultured cell lines: A549 (human lung carcinoma, ATCC, Manassas, VA, USA), SNB-19 (human glioblastoma, DSMZ, German Collection of Microorganisms and Cell Cultures), T-47D (human breast cancer, ATCC, Manassas, VA, USA), and NHDF (normal human dermal fibroblasts, ATCC, Manassas, VA, USA). The cultured cells were kept at 37 °C and 5% CO2. The cells were seeded (1 × 10^4 cells/well/100 μL DMEM supplemented with 10% FCS, streptomycin, and penicillin) using 96-well plates (corning). Cells were counted in a hemocytometer (Burker chamber) using a phase contrast Olympus IX50 microscope equipped with a Sony SSC-DC58 AP camera and an Olympus DP10 digital camera.
(§4) The antiproliferative effect of the compounds exerted on cancer and normal cells was determined using the Cell Proliferation Reagent WST-1 assay (Roche Molecular Biochemicals, Mannheim, Germany). This assay is based on a colorimetric method using the enzymatic ability of viable cells to cause the bright, red-colored stable tetrazolium monosodium salt [2-(4-iodophenyl)-3-(4-nitrophenyl)-5-(2,4-disulfophenyl)–2H-tetra-zolium] to transform into the dark, red-colored soluble formazan. […] An increase in the amount of formazan dye formed correlated with the number of metabolically active cells in the culture. The formazan dye produced by metabolically active cells was quantified by absorbance readings at appropriate wavelengths. The examined cells were exposed to the tested compounds (1 mM DMSO stock) for 72 h at various concentrations (0.1–100 μM). The control was performed in order to eliminate the DMSO effect at the concentration used. Cell cultures were incubated with WST-1 (10 μL) for 1 h. The absorbance of the samples was measured against a background control at 450 nm using a microplate reader with a reference wavelength at 600 nm. The obtained results are expressed as the means of at least two independent experiments performed in triplicate. The antiproliferative activity of the tested compounds was compared to that of cisplatinum. The values of IC50 (a concentration of a compound that is required for 50% inhibition) were calculated from the dose-response relationship with respect to control. The results were reported as the mean (±std) of three separate experiments.

[4] = tested on: SNB-19 (human glioblastoma); test: WST-1 proliferation assay, SNB-19; format: cell-based
Description: as §3, §4

[5] = tested on: vancomycin-resistant E. faecalis VRE 342B; test: MIC, microtitration broth method, VRE1; format: cell-based; conditions: Enterococcus faecalis, 24 h at 37 °C
Description: as §1, §2

[6] = tested on: Mycobacterium smegmatis ATCC 700084; test: MIC, broth dilution micro-method, MS; format: cell-based; conditions: Mycolicibacterium smegmatis, ATCC700084, 72 h; 3 days at 37 °C
[7] = tested on: methicillin-resistant S. aureus 63718; test: MIC, microtitration broth method, MRSA3; format: cell-based; conditions: Staphylococcus aureus; 24 h at 37 °C
Description: as §1, §2

[8] = tested on: vancomycin-resistant E. faecalis VRE 368; test: MIC, microtitration broth method, VRE2; format: cell-based; conditions: Enterococcus faecalis, 24 h at 37 °C
Description: as §1, §2

[9] = tested on: vancomycin-resistant E. faecalis VRE 725B; test: MIC, microtitration broth method, VRE3; format: cell-based; conditions: Enterococcus faecalis, 24 h at 37 °C
Description: as §1, §2

[10] = tested on: Mycobacterium smegmatis ATCC 700084; test: MBC, agar aliquot subculture method, MS; format: cell-based; conditions: Mycolicibacterium smegmatis, ATCC700084
Description: (§5) For the above-mentioned strains/isolates, the agar aliquot subculture method was used as a test for bactericidal agents. After the MIC value determination, the inoculum was transferred to CaMH (Oxoid) for staphylococci, BHI (Oxoid) for enterococci, and Middlebrook 7H9 (Difco) for mycobacteria medium using a multipoint inoculator. As indicated above, the plates were incubated on a thermostat at 37 °C for the appropriate time for each micro-organism. The lowest concentration of test compound at which ≤5 colonies were obtained was then evaluated as MBC, corresponding to a 99.9% decrease in CFU relative to the original inoculum.

[11] = tested on: Enterococcus faecalis ATCC 29213; test: MIC, microtitration broth method, EF; format: cell-based; conditions: ATCC29213, 24 h at 37 °C
[12] = tested on: T-47D (human breast cancer); test: WST-1 proliferation assay, T47D; format: cell-based; conditions: 72 h exposure
Description: as §3, §4

[13] = tested on: Mycobacterium marinum CAMP 5644; test: MBC, agar aliquot subculture method, MM; format: cell-based; conditions: CAMP5644
Description: as §5

[14] = tested on: methicillin-resistant S. aureus SA 3202; test: MIC, microtitration broth method, MRSA1; format: cell-based; conditions: Staphylococcus aureus; 24 h at 37 °C
Description: as §1, §2

[15] = tested on: Mycobacterium marinum CAMP 5644; test: MIC, broth dilution micro-method, MM; format: cell-based; conditions: CAMP5644, 504 h, 21 days at 28 °C
[16] = tested on: NHDF (normal human dermal fibroblasts); test: WST-1 proliferation assay, NHDF; format: cell-based; conditions: normal cells, 72 h exposure
Description: as §3, §4

[17] = tested on: Mycobacterium smegmatis ATCC 700084; conditions: MTT, 3 days
[18] = Homo sapiens, A549, 72 h exposure
[19] = Homo sapiens, SNB-19, 72 h exposure

| Compound | IC50 [3, 18] [µM] | IC50 [4, 19] [µM] | MIC [6] [µM] | MBC [10] [µM] | IC50 ([12]; Homo sapiens, T47D) [µM] | MBC [13] [µM] | MIC [15] [µM] | IC50 ([16]; Homo sapiens, NHDF) [µM] | other results |
| --- | --- | --- | --- | --- | --- | --- | --- | --- | --- |
| C=CCn1cc(COc2cccc3c2Nc2c(c[n+](C)c4ccccc24)S3)nn1 [2c, 5-Methyl-11-(1-allyl-1H-1,2,3-triazol-4-yl)methoxy-12H-quino [3,4-b][1,4]benzothiazinium chloride] | 5.7 ± 0.9 | 4.1 ± 0.5 | 65.5 | 65.5 | 7.6 ± 0.4 | 131 | 131 | > 100 | MIC [1]: 524 µM; MIC [2]: 524 µM; MIC [5]: > 524 µM; MIC [7]: 524 µM; MIC [8]: > 524 µM; MIC [9]: 524 µM; MIC [11]: > 524 µM; MIC [14]: 524 µM |
| C[n+]1cc2c(c3ccccc31)Nc1c(OCc3cn(Cc4ccccc4)nn3)cccc1S2 [2f, 5-Methyl-11-(1-benzyl-1H-1,2,3-triazol-4-yl)methoxy-12H-quino [3,4-b][1,4]benzothiazinium chloride] | 11.5 ± 0.6 | 8.5 ± 0.5 | 65.5 | 65.5 | 20.5 ± 1.4 | 65.5 | 65.5 | 30.5 ± 2.1 | MIC [1]: > 524 µM; MIC [2]: > 524 µM; MIC [5]: > 524 µM; MIC [7]: 524 µM; MIC [8]: > 524 µM; MIC [9]: > 524 µM; MIC [11]: > 524 µM; MIC [14]: > 524 µM |
| C[n+]1cc2c(c3ccccc31)Nc1c(OCc3cn(Cc4ccc([N+](=O)[O-])cc4)nn3)cccc1S2 [2i, 5-Methyl-11-[1-(4-nitrobenzyl)-1H-1,2,3-triazol-4-yl]methoxy-12H-quino [3,4-b][1,4]benzothiazinium chloride] | 9 ± 0.4 | 4.9 ± 0.3 | 65.5 | 65.5 | 2.8 ± 0.2 | 131 | 131 | > 100 | MIC [1]: 524 µM; MIC [2]: 524 µM; MIC [5]: > 524 µM; MIC [7]: 524 µM; MIC [8]: > 524 µM; MIC [9]: 524 µM; MIC [11]: > 524 µM; MIC [14]: 524 µM |
| C=CCn1cc(COc2ccccc2N)nn1 [5a, 1-allyl-4-(2-aminophenoxy)methyl-1H-1,2,3-triazole] | > 100 | > 100 | – | – | > 100 | – | – | > 100 | – |
| Nc1ccc(OCc2cn(Cc3ccccc3)nn2)cc1 [5f, 1-benzyl-4-(4-aminophenoxy)methyl-1H-1,2,3-triazole] | > 100 | > 100 | – | – | > 100 | – | – | > 100 | – |
| Nc1cccc(OCc2cn(Cc3ccc([N+](=O)[O-])cc3)nn2)c1 [5h, 1-(4-nitrobenzyl)-4-(3-aminophenoxy)methyl-1H-1,2,3-triazole] | > 100 | > 100 | – | – | > 100 | – | – | > 100 | – |
| Nc1ccc(OCc2cn(Cc3ccc([N+](=O)[O-])cc3)nn2)cc1 [5i, 1-(4-nitrobenzyl)-4-(4-aminophenoxy)methyl-1H-1,2,3-triazole] | > 100 | > 100 | – | – | > 100 | – | – | > 100 | – |
| N.N.[Cl][Pt][Cl] [CIS, cisplatin, reference compound] | – | – | – | – | – | – | – | – | IC50 ([3]; 72 h exposure): 3 ± 0.2 µM; IC50 ([4]; 72 h exposure): 16.7 ± 1.3 µM; IC50 [12]: 9 ± 0.7 µM; IC50 [16]: 29.9 ± 3.3 µM |
| O=C(O)c1cn(C2CC2)c2cc(N3CCNCC3)c(F)cc2c1=O [CPX, ciprofloxacin, reference compound] | – | – | 0.38 (≈ 0.126 µg/mL) | 0.38 (≈ 0.126 µg/mL) | – | 0.38 (≈ 0.126 µg/mL) | 0.38 (≈ 0.126 µg/mL) | – | Conc.: lowest multiple of MBC with at least 70% inhibition of respiratory activity [17]: 32× MIC (32× MBC); Conc.: lowest multiple of MIC with at least 70% inhibition of respiratory activity [17]: 32× MIC (32× MBC) |
| COc1cccc2c1C(=O)c1c(O)c3c(c(O)c1C2=O)C[C@@](O)(C(=O)CO)C[C@@H]3O[C@H]1C[C@H](N)[C@H](O)[C@H](C)O1 [DOX, doxorubicin, reference compound] | 1.3 ± 0.1 | 1.7 ± 0.2 | – | – | 0.8 ± 0.1 | – | – | 5.5 ± 0.5 | – |
| CO[C@H]1/C=C/O[C@@]2(C)Oc3c(C)c(O)c4c(O)c(c(/C=N/N5CCN(C)CC5)c(O)c4c3C2=O)NC(=O)/C(C)=C\C=C\[C@H](C)[C@H](O)[C@@H](C)[C@@H](O)[C@@H](C)[C@H](OC(C)=O)[C@@H]1C [RIF, rifampicin, reference compound] | – | – | 19.4 (≈ 16 µg/mL) | – | – | – | 2.43 (≈ 2 µg/mL) | – | – |
